According to article PMC11266932, “Enhanced absorption of prenylated cinnamic acid derivatives from Brazilian green propolis by turmeric in humans and rats” (Food Science & Nutrition, 2024):
“Also recorded” adds a separate entry of the source. Read-outs that look alike come from different tables or passages of the source.

Test: Animal study: plasma concentration and AUC of cinnamic acid derivatives after intragastric BGP with or without each herbal extract
Format: in vivo, Wistar/ST rats
Conditions: rats; for plasma concentration, BGP alone versus BGP and turmeric (in words): 24 h post-ingestion; for AUC: intragastric, 0–24 h, mean ± SD, n = 8
Procedure: Wistar/ST rats (male, 7 weeks old) were purchased from Japan SLC (Shizuoka, Japan). […] The rats were quarantined and acclimatized under the above conditions for 1 week and divided into six groups (eight rats/group) according to their average body weight (240–260 g). Each test sample listed in Table 1 was dissolved in 10% propylene glycol (1 mL per rat) and administered intragastrically to the rats after an overnight fasting period with free access to water. […] The collected samples were centrifuged at 1500 g for 10 min at 4°C to separate the plasma and preserved at −80°C until further sample preparation.
Briefly, 50 μL of plasma was treated with a sulfatase/β‐glucuronidase solution (sulfatase 15 units/sample) in 100 mM sodium acetate and 5 mM ascorbate at 37°C for 1 h. Following the incubation, 850 μL of methanol was added to the samples to stop the deconjugation reaction, after which centrifugation was performed at 2000 g for 10 min at 23 ± 2°C. The supernatant was evaporated under nitrogen gas and then reconstituted in a fixed volume of methanol. The samples were filtered through a 0.22 μm PTFE membrane and then analyzed by LC–MS/MS.
Briefly, 5 μL of the sample was injected into a reversed‐phase column (Acquity UPLC BEH C18, 2.1 × 100 mm, ID. 1.7 μm; Waters, Milford, MA, USA) held at 30°C. The elution was performed using solvent A (0.1% formic acid) and solvent B (acetonitrile) at a flow rate of 0.3 mL/min. The gradient profiles were as follows: 5% B (0–2 min), 5–95% B (2–22 min), 95% B (22–25 min), and 5% B (25–30 min). Tandem mass spectrometry (MS/MS) was conducted using an ion trap mass spectrometer with a heated electrospray ion source (HESI) in both positive and negative ionization modes (scan range m/z 70–1000). […] External standard curves for cinnamic acid derivatives were generated using eight concentrations of authentic standard solutions (1, 5, 10, 50, 100, 250, 500, and 1000 ng/mL).
Quantification of cinnamic acid derivatives in the plasma was performed using the Trace Finder software version 4.1 (Thermo Scientific). The plasma concentration versus time data for the analytes obtained from each human and rat were entered into a Microsoft Excel spreadsheet. The area under the plasma concentration–time curve (AUC) was calculated using the linear trapezoidal rule, extending to the last sampling point.

[1] = BGP co-administered with gotu kola extract
[2] = BGP co-administered with turmeric extract

Row | SMILES | plasma concentration, BGP alone versus BGP and turmeric (in words) | AUC (BGP 75 mg/kg administered alone) | AUC (BGP 75 mg/kg co-administered with turmeric extract 250 mg/kg) | peaks of the plasma concentration–time curve (BGP + turmeric extract) | fold increase of plasma concentration versus BGP alone (BGP + turmeric extract, 30 min after administration) | fold increase of plasma concentration versus BGP alone (BGP + turmeric extract, 6 h after administration) | change of AUC versus BGP alone (in words) (BGP co-administered with coffee fruit extract) | change of AUC versus BGP alone (in words) (BGP co-administered with ginkgo leaf extract) | change of AUC versus BGP alone (in words) [1] | change of AUC versus BGP alone (in words) (BGP co-administered with soybean extract) | fold increase of AUC versus BGP administered alone [2] | AUC (male, Wistar/ST, rat, plasma, po, BGP 75 mg/kg co-administered with gotu kola extract 250 mg/kg, read-out: AUC) | AUC (male, Wistar/ST, rat, plasma, po, BGP 75 mg/kg co-administered with turmeric extract 250 mg/kg, read-out: AUC) | change of plasma concentration versus BGP alone (in words) (BGP + turmeric extract, at 30 min and 3 h) | fold increase of AUC versus BGP administered alone [1]
1 | CC(C)=CCc1cc(/C=C/C(=O)O)cc(CC=C(C)C)c1O [artepillin C] | did not differ | 1018.0 ± 184.5 ng·h/mL | 1377.2 ± 320.2 ng·h/mL | two distinct peaks at 30 min and 6 h | 1.7 fold | 1.5 fold | did not significantly alter | did not significantly alter | did not significantly alter; also recorded: not changed | did not significantly alter | 1.4 fold |  |  |  | 
2 | CC(C)=CCc1cc(/C=C/C(=O)O)ccc1O [drupanin] | did not differ |  |  |  |  |  |  |  | tended to increase |  | 1.3 fold | 629 ± 167 ng·h/mL | 627 ± 148 ng·h/mL | significant increases or increasing trends | 1.3 fold
